Reference: publication PMC8955370, “Triterpenes and Phenolic Compounds from Euphorbia deightonii with Antiviral Activity against Herpes Simplex Virus Type-2” (Plants, 2022)
Read-outs that look alike come from different tables or passages of the source. Each block holds one compound with its values, some of them ahead of it.

Tests used:
[1] = MTT cell viability assay for cytotoxic concentration 50% (CC50); assay type: cell-based; conditions: African green monkey
Protocol: For the determination of cytotoxic concentration 50% (CC50), a cell viability test was performed as an MTT assay using the Vero cell line. Cells were seeded at a density of 4 × 10^4 cells/well. After an overnight period, fresh medium was complemented with serial 2-fold dilutions of all compounds 1–8. The cells were incubated at 37 °C for 24 h. Later, 20 μL of thiazolyl blue tetrazolium bromide (MTT; Sigma-Aldrich, St. Louis, MO, USA) was added to each well. After an additional incubation at 37 °C for 4 h, sodium dodecyl sulphate (Sigma-Aldrich, St. Louis, MO, USA) solution (10% in 0.01 M HCI) was added and incubated overnight. CC50 was then determined by measuring the OD at 550 nm (ref. 630 nm) with the EZ READ 400 ELISA reader (Biochrom, Cambridge, UK). The assay was replicated four times for each concentration.

Bacillus subtilis = test system: Bacillus subtilis; design: method as in doi:10.1016/S0031-9422(00)81759-8; conditions: cited from earlier work
Klebsiella pneumoniae = test system: Klebsiella pneumoniae; design: method as in doi:10.1016/S0031-9422(00)81759-8; conditions: cited from earlier work
Trychophyton rubrum = test system: Trychophyton rubrum; design: method as in doi:10.1016/S0031-9422(00)81759-8; conditions: cited from earlier work
HSV-2 [2] = experiment: Anti-HSV-2 qRT-PCR assay on infected Vero cells; conditions: for Anti-HSV-2 Activity IC50: Vero cells infected with 0.01 MOI HSV-2, 24 h, qRT-PCR; for IC50: Human alphaherpesvirus 2, Vero; for Selectivity Index: SI = CC50/IC50
[3] = test system: acyclovir (ACV)-resistant strains of HSV-1; design: method as in PMID 32545813; conditions: ACV-resistant HSV-1; cited from earlier work
[4] = test system: acyclovir (ACV)-resistant strains of HSV-2; conditions: ACV-resistant HSV-2; cited from earlier work
[5] = test system: murine colon 26-L5 carcinoma cells; design: method as in PMID 9677271; conditions: cited from earlier work
[6] = test system: human HT-1080 fibrosarcoma; design: method as in PMID 9677271; conditions: cited from earlier work
[7] = test system: gastric epithelial cell lines (GES–2); design: method as in PMID 23109850; conditions: GES–2 cells; cited from earlier work
rat epithelioid = test system: rat epithelioid; design: method as in PMID 26274958; conditions: rat epithelioid cells; cited from earlier work
[8] = test system: human normal liver (L–O2); design: method as in PMID 23109850; conditions: L–O2 cells; cited from earlier work
HSV = test system: HSV; design: method as in PMID 14998984; conditions: cited from earlier work
HSV-1 = test system: HSV-1; design: method as in PMID 14526920; conditions: cited from earlier work
HSV-2 [9] = test system: HSV-2; design: method as in PMID 14526920; conditions: cited from earlier work
hepatitis B virus (HBV) = test system: hepatitis B virus (HBV); design: method as in PMID 31557836; conditions: HepG2.2.15 model transfected with HBV; cited from earlier work
[10] = test system: influenza A virus (A/PR/8/34, H1N1); design: method as in PMID 28081470; conditions: not effective; cited from earlier work
[11] = test system: porcine circovirus type 2 (PCV2); design: method as in doi:10.1007/s12257-014-0520-8; conditions: at the concentration of 0.01563 mg/mL; cited from earlier work
HSV-2 [12] = conditions: by reducing HSV-2 infectivity; cited from earlier work
[13] = test system: six terrestrial pathogenic bacteria; design: method as in PMID 24914904; conditions: cited from earlier work
[14] = Vero cells, MTT assay, 24 h, read-out: CC50
[15] = 24 h, read-out: Anti-HSV-2 Activity IC50

Compound: COc1cc(C(OC)C(COC(C)=O)Oc2ccc(/C=C/COC(C)=O)cc2OC)ccc1O (centres unmarked) [Compound 6, marylaurencinol D]
- CC50 at 24 h [1]: 71.6 ± 5.83 µM
- antimicrobial activity (Bacillus subtilis): weak potency
- antimicrobial activity (Klebsiella pneumoniae): no effect
- antimicrobial activity (Trychophyton rubrum): no effect
- Anti-HSV-2 Activity IC50 (HSV-2 [2]): inactive

Compound: O=C1OC[C@H]2OC(=O)c3cc(O)c(O)c(O)c3-c3c(O)c(O)c(O)c4c3C(=O)O[C@H]([C@H]3OC(=O)c5c-4c(O)c(O)c(O)c5[C@H]3O)[C@@H]2OC(=O)c2cc(O)c(O)c(O)c2-c2c1cc(O)c(O)c2O [castalagin]
- antiviral activity [3]: activity against acyclovir (ACV)-resistant strains of HSV-1 and HSV-2 was proved
- antiviral activity [4]: activity against acyclovir (ACV)-resistant strains of HSV-1 and HSV-2 was proved

Compound: COc1cc([C@H]2Oc3c(OC)cc(/C=C/COC(C)=O)cc3[C@@H]2COC(C)=O)ccc1O [Compound 5, dehydrodiconiferyl-diacetate]
- CC50 at 24 h [1]: 82.5 ± 8.94 µM
- cytotoxic activity [5]: moderate cytotoxic activity
- cytotoxic activity [6]: moderate cytotoxic activity
- Anti-HSV-2 Activity IC50 (HSV-2 [2]): inactive

Compound: CC(C)=CCC[C@@H](C)[C@@H]1CC[C@]2(C)C3=C(CC[C@@]12C)[C@@]1(C)CC[C@H](O)C(C)(C)[C@@H]1CC3=O [Compound 2, kansenone]
- CC50 at 24 h [1, 14]: 52.1 ± 2.21 µM
- cytotoxicity [7]: strong cytotoxicity
- cytotoxicity (rat epithelioid): strong cytotoxicity
- Anti-HSV-2 Activity IC50 (HSV-2 [2]): inactive
- cytotoxicity [8]: strong cytotoxicity

Compound: O=C(OC1OC2COC(=O)c3cc(O)c(O)c(O)c3-c3c(cc(O)c(O)c3O)C(=O)OC3C2OC(=O)C24CC5(O)OC6(OCC(O)C6O)C2OC2(O)C4c4c(cc(O)c(O)c4OC52O)C(=O)OC13)c1cc(O)c(O)c(O)c1 (centres unmarked) [putranjivain A]
- viral attachment and cell penetration (HSV): inhibition of viral attachment and cell penetration
- viral infectivity (HSV): significantly reduce viral infectivity

Compound: C=C(C)[C@@H]1CC[C@]2(C)CC[C@]3(C)[C@H](CC[C@@H]4[C@@]5(C)CCC(=O)C(C)(C)[C@@H]5CC[C@]43C)[C@@H]12 [lupenone]
- viral plaque inhibitory effect (HSV-1): strong viral plaque inhibitory effect
- viral plaque inhibitory effect (HSV-2 [9]): strong viral plaque inhibitory effect

Compound: C=CC(OC)c1cc(OC)c2c(c1)[C@@H](COC(C)=O)[C@H](c1ccc(O)c(OC)c1)O2 (relative stereo) [Compound 4, trans-(2-(4-hydroxy-3-methoxyphenyl)-7-methoxy-5-(1-methoxyallyl)-2,3-dihydrobenzofuran-3-yl)methyl acetate]
- CC50 at 24 h [1]: 39.8 ± 4.73 µM
- IC50 (HSV-2 [2]; [15]): 11.7 ± 0.79 µM
- Selectivity Index (HSV-2 [2]): 3.389

Compound: COc1cc2c(=O)oc3c(OC)c(O)cc4c(=O)oc(c1OC)c2c34 [Compound 8, 3,4,3′-tri-O-methylellagic acid]
- CC50 at 24 h [1]: 25.7 ± 1.84 µM
- Anti-HSV-2 Activity IC50 (HSV-2 [2]): inactive

Compound: COc1cc2ccc(=O)oc2cc1OC [Compound 7, 6,7-dimethoxycoumarin]
- CC50 at 24 h [1]: 0.35 ± 0.016 µM
- anti-hepatitis B virus activity (hepatitis B virus (HBV)): efficiently inhibits viral replication
- IC50 against influenza A virus [10]: > 15 µg/mL
- IC50 (HSV-2 [2]; [15]): 0.032 ± 0.0021 µM
- IC50 (HSV-2 [2]; read-out: IC50 (anti-HSV-2)): 0.032 µM
- Selectivity Index (HSV-2 [2]): 10.923
- effect on PCV2 replication [11]: replication-inducing activity

- IC50 (HSV-2 [2]; [15]): 0.77 ± 0.032 µM
Compound: Nc1nc2c(ncn2COCCO)c(=O)[nH]1 [Acyclovir, reference compound]
- CC50 at 24 h [1]: 100 ± 6.15 µM
- Selectivity Index (HSV-2 [2]): 129.87

Compound: O=C(OC1C(O)C(O)OC2COC(=O)c3cc(O)c(O)c(O)c3-c3c(cc(O)c(O)c3O)C(=O)OC21)c1cc(O)c(O)c(O)c1 [3-O-galloyl-4,6-(S)-hexahydroxydiphenoyl-D-glucose]
- HSV-2 multiplication (HSV-2 [12]): inhibit HSV-2 multiplication

Compound: O=C1OCC2OC(=O)c3cc(O)c(O)c(O)c3-c3c(O)c(O)c(O)c4c3C(=O)OC(C2OC(=O)c2cc(O)c(O)c(O)c2-c2c1cc(O)c(O)c2O)C1OC(=O)c2c-4c(O)c(O)c(O)c2C1O (centres unmarked) [vescalagin]
- antiviral activity [3]: activity against acyclovir (ACV)-resistant strains of HSV-1 and HSV-2 was proved
- antiviral activity [4]: activity against acyclovir (ACV)-resistant strains of HSV-1 and HSV-2 was proved

Compound: C=C(CC[C@@H](C)[C@H]1CC[C@@]2(C)C3=C(C(=O)C[C@]12C)[C@@]1(C)CC[C@H](O)C(C)(C)[C@@H]1C[C@@H]3O)C(C)C [Compound 1, 3β,7β-dihydroxy-24-methylenelanosta-8-ene-11-one]
- CC50 at 24 h [1]: 35.5 ± 1.62 µM
- IC50 (HSV-2 [2]; [15]): 7.05 ± 0.25 µM
- Selectivity Index (HSV-2 [2]): 5.03

Compound: C=C(CC[C@H](C)[C@@H]1CC[C@@]2(C)C3=C(CC[C@]12C)[C@@]1(C)CC[C@H](O)C(C)(C)[C@@H]1CC3=O)C(C)C [Compound 3, euphorbol-7-one]
- CC50 at 24 h [1, 14]: 7.84 ± 0.96 µM
- antibacterial activity [13]: ineffective
- IC50 (HSV-2 [2]; [15]): 2.42 ± 0.06 µM
- Selectivity Index (HSV-2 [2]): 3.23

Compound: grandinin
- antiviral activity [3]: activity against acyclovir (ACV)-resistant strains of HSV-1 and HSV-2 was proved
- antiviral activity [4]: activity against acyclovir (ACV)-resistant strains of HSV-1 and HSV-2 was proved
